PubChem BioAssay (NCI)
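Following 48 hours of exposure in 96-well plates, responses at five concentrations were used to interpolate endpoints linearly. The concentration for 50% growth inhibition is given as GI50. TGI is the concentration that stops growth completely.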

Assays:
Test in all cases: NCI-60 cell line screen, 48 h
[1] = test system: RPMI-8226 leukemia
[2] = test system: MOLT-4 leukemia
[3] = test system: RXF 393 renal
[4] = test system: CCRF-CEM leukemia
[5] = test system: CAKI-1 renal
[6] = test system: DU-145 prostate
[7] = test system: A498 renal
[8] = test system: SK-MEL-28 melanoma
[9] = test system: OVCAR-4 ovarian
[10] = test system: OVCAR-8 ovarian
[11] = test system: HCT-116 colon
[12] = test system: MDA-MB-435
[13] = test system: HT29 colon
[14] = test system: HS 578T breast
[15] = test system: ACHN renal
[16] = test system: BT-549 breast
[17] = test system: HCC-2998 colon
[18] = test system: SF-268 CNS
[19] = test system: SK-OV-3 ovarian
[20] = test system: U251 CNS
[21] = test system: A549 NSCLC
[22] = test system: SR leukemia
[23] = test system: NCI-H460 lung
[24] = test system: HOP-62 NSCLC
[25] = test system: EKVX NSCLC
[26] = test system: KM12 colon
[27] = test system: TK-10 renal
[28] = test system: MCF7 breast
[29] = test system: UACC-257 melanoma
[30] = test system: PC-3 prostate
[31] = test system: SF-295 CNS
[32] = test system: SK-MEL-2 melanoma
[33] = test system: HOP-92 NSCLC
[34] = test system: OVCAR-3 ovarian
[35] = test system: MDA-MB-231 breast
[36] = test system: NCI/ADR-RES ovarian
[37] = test system: 786-0 renal
[38] = test system: NCI-H23 lung
[39] = test system: HCT-15 colon
[40] = test system: SNB-19 CNS
[41] = test system: UO-31 renal
[42] = test system: UACC-62 melanoma
[43] = test system: MALME-3M melanoma
[44] = test system: M14 melanoma
[45] = test system: HL-60(TB) leukemia
[46] = test system: SW-620 colon
[47] = test system: T-47D breast
[48] = test system: OVCAR-5 ovarian

CCN(CC)CCCC(C)Nc1cc(-c2ccc(C(F)(F)F)cc2)c(C#N)c2nc3ccccc3n12 (stereo unspecified) gave a GI50 [1] of 1960 nM, a TGI [1] of 5220 nM and a GI50 [2] of 3190 nM. It also gave a TGI [2] of 12100 nM, a GI50 [3] of 1400 nM and a TGI [3] of 2960 nM. The GI50 [4] was 846 nM, the TGI [4] was greater than 100000 nM and the GI50 [5] was 2890 nM. The TGI [5] was 12500 nM, the GI50 [6] was 3550 nM and the TGI [6] was 11400 nM. It also gave a GI50 [7] of 1470 nM, a TGI [7] of 2900 nM and a GI50 [8] of 325 nM. The TGI [8] was 1190 nM, the GI50 [9] was 3120 nM and the TGI [9] was 10100 nM. For the same compound, the GI50 [10] was 2410 nM, the TGI [10] was 5510 nM and the GI50 [11] was 687 nM. For the same compound, the TGI [11] was 2060 nM, the GI50 [12] was 1670 nM and the TGI [12] was 3140 nM. The GI50 [13] was 2380 nM, the TGI [13] was 5580 nM and the GI50 [14] was 1820 nM. It also gave a TGI [14] of 4860 nM, a GI50 [15] of 1380 nM and a TGI [15] of 2870 nM. It also gave a GI50 [16] of 1600 nM, a TGI [16] of 3160 nM and a GI50 [17] of 1910 nM. The TGI [17] was 3670 nM, the GI50 [18] was 1900 nM and the TGI [18] was 4430 nM. The GI50 [19] was 2220 nM, the TGI [19] was 4750 nM and the GI50 [20] was 2040 nM. The TGI [20] was 4160 nM, the GI50 [21] was 3440 nM and the TGI [21] was 10900 nM. For the same compound, the GI50 [22] was 2160 nM, the TGI [22] was 5910 nM and the GI50 [23] was 1820 nM. The TGI [23] was 3610 nM, the GI50 [24] was 2200 nM and the TGI [24] was 7180 nM. It also gave a GI50 [25] of 2290 nM, a TGI [25] of 5820 nM and a GI50 [26] of 3290 nM. The TGI [26] was 12600 nM, the GI50 [27] was 2490 nM and the TGI [27] was 5290 nM. It also gave a GI50 [28] of 2100 nM, a TGI [28] of 4880 nM and a GI50 [29] of 2080 nM. It also gave a TGI [29] of 3750 nM, a GI50 [30] of 2060 nM and a TGI [30] of 4260 nM. For the same compound, the GI50 [31] was 1890 nM, the TGI [31] was 3570 nM and the GI50 [32] was 2270 nM. The TGI [32] was 4150 nM, the GI50 [33] was 1660 nM and the TGI [33] was 3430 nM. The GI50 [34] was 1840 nM, the TGI [34] was 3680 nM and the GI50 [35] was 1580 nM. For the same compound, the TGI [35] was 3420 nM, the GI50 [36] was 1980 nM and the TGI [36] was 4440 nM. The GI50 [37] was 1510 nM, the TGI [37] was 2930 nM and the GI50 [38] was 1860 nM. For the same compound, the TGI [38] was 4220 nM, the GI50 [39] was 1880 nM and the TGI [39] was 4030 nM. It also gave a GI50 [40] of 2960 nM, a TGI [40] of 11100 nM and a GI50 [41] of 1410 nM. It also gave a TGI [41] of 2870 nM, a GI50 [42] of 1720 nM and a TGI [42] of 3380 nM. The GI50 [43] was 1830 nM, the TGI [43] was 3540 nM and the GI50 [44] was 1810 nM. The TGI [44] was 3370 nM, the GI50 [45] was 2100 nM and the TGI [45] was 4980 nM. For the same compound, the GI50 [46] was 1920 nM, the TGI [46] was 3990 nM and the GI50 [47] was 2230 nM. It also gave a TGI [47] of 5450 nM, a GI50 [48] of 2290 nM and a TGI [48] of 5150 nM.
